In data set [1] the test system is HCoV-OC43-WT. The conditions noted are these: for EC50: read-out: HCoV-OC43 EC50.
Data set [2] has as its system HCoV-NL63. The following applies: read-out: HCoV-NL63 EC50.
Data set [3] deals with MERS-CoV. The conditions noted are these: for EC50: read-out: MERS-CoV EC50.
Data set [4] concerns MHV-A59. The following applies: read-out: MHV-A59 EC50.
The subject of data set [5] is four CoVs (HCoV-OC43, HCoV-NL63, MERS-CoV, MHV-A59). The experiment in a line: organism not typed. Type of data set: cell-based. The following applies: read-out: EC50 values against all CoVs.
Data set [6] deals with pseudotyped MERS-CoV (HIV-1 backbone, spike protein of MERS-CoV). Type of data set: cell-based.
The next data set can be described thus: in vitro. The following applies: mouse.
Data set [7] concerns HCoV-NL63. Briefly: microbe, parasite or virus in culture. The following applies: Human coronavirus NL63, LLC-MK2, 72 h, read-out: HCoV-NL63 EC50.
Data set [8] concerns MHV-A59. Briefly: microbe, parasite or virus in culture. The conditions noted are these: Murine coronavirus, 72 h, read-out: MHV-A59 EC50.
In data set [9] the test system is SARS-CoV. The conditions noted are these: cited from earlier work.
For data set [10], the system named is MERS-CoV. The conditions noted are these: cited from earlier work.
Data set [11] has as its system SARS-CoV. The conditions noted are these: mouse, in vivo; cited from earlier work.
Data set [12] deals with HCoV-OC43-WT. Set-up: species or system BALB/c mice. The following applies: in vivo.
In another data set the test system is rOC43-ns2Del-Rluc. The format is in vivo, BALB/c mice.
Data set [13] relates to MERS-CoV. The conditions noted are these: read-out: EC50, MERS-CoV; cited from earlier work.
The subject of the next data set is HCoV-229E. The conditions noted are these: read-out: EC50, HCoV-229E; CoV-infected human primary cells; cited from earlier work.

Results on 6 molecules are retold here after publication PMC6613765 (Journal of Virology, 2019).

Like-named read-outs stand apart in the source and are kept apart here.

Regarding `CC(=O)Oc1cc2c(c(C)c1OC(C)=O)CC=C1[C@@]2(C)CC[C@@]2(C)C3C[C@](C)(C(=O)O)CC[C@]3(C)CC[C@]12C` (stereo partly drawn) [Dihydrocelastryl diacetate], the EC50 in the data set on HCoV-OC43-WT [1] worked out at 1.71 µM; in the data set on HCoV-NL63 [2] it was 0.65 µM; in the data set with MERS-CoV [3] it was 10.6 µM; in the data set with MHV-A59 [4] it was 4.24 µM. For the same molecule, the CC50 in the data set on BHK-21 cells, in the data set with LLC-MK2 cells, with Vero E6 cells and in the data set with DBT cells was more than 20 µM in each case.

For `CC[C@H]1CN2CCc3cc(OC)c(OC)cc3[C@@H]2C[C@@H]1C[C@H]1NCCc2cc(OC)c(OC)cc21` [Emetine], the EC50 is less than 5 µM in data set [5], 1.43 µM in the data set on HCoV-NL63 [7] and 0.12 µM in the data set with MHV-A59 [8]. For the same molecule, the “luciferase activity reduced compared with control” value in data set [6] was found to be 50 fold. Also, the “SI (CC50/EC50), MERS-CoV” value in the data set with MERS-CoV [3] is 9.06. In addition, the CC50 in the data set on BHK-21 cells (hamster) was 2.69 µM; with LLC-MK2 cells (rhesus monkey) it was 3.63 µM; in “in vitro”, 3.51 µM.

As for `CCC(CC)COC(=O)[C@H](C)N[P@](=O)(OC[C@H]1O[C@@](C#N)(c2ccc3c(N)ncnn23)[C@H](O)[C@@H]1O)Oc1ccccc1` [GS-5734], the “IC50, SARS-CoV replication” value in the data set with SARS-CoV [9] is on record as “submicromolar”. Besides, the “IC50, MERS-CoV replication” value in the data set on MERS-CoV [10] was “submicromolar”. Further, in the data set on SARS-CoV [11], the lung viral load result is recorded as “significantly reduced the lung viral load”.

Regarding `O[C@H]1[C@H]2c3cc4c(cc3CN3CCC(=C[C@@H]1O)[C@H]23)OCO4` [Lycorine], the “HCoV-OC43 nucleocapsid protein in mouse brain coronal sections (IHC)” value in the data set with HCoV-OC43-WT [12] is recorded as “present only in the PBS-DMSO-treated group, not in the lycorine-treated group”. Besides, the “viral loads in the brain and spinal cord” value with HCoV-OC43-WT [12] (mouse) is given as “under the limit of detection”. The “bioluminescence signal in the brain” value in the data set on rOC43-ns2Del-Rluc (15 mg/kg daily, 2, 3 and 4 days postinoculation) is “no signal was detected”. In the data set with rOC43-ns2Del-Rluc (mouse brain, 72 h postinoculation, 15 mg/kg), the “Rluc activity in PBS-DMSO-treated mice relative to treated mice” value was ~2 × 10^5 fold. In addition, the “SI (CC50/EC50), HCoV-OC43” value in the data set with HCoV-OC43-WT [1] came out at 29.13. The CC50 in the data set with BHK-21 cells (hamster) was found to be 4.37 µM; with LLC-MK2 cells (rhesus monkey), 3.81 µM; in the data set “in vitro”, 3.51 µM. Moreover, the results for the EC50 in the data set on HCoV-NL63 [7] and in the data set on MHV-A59 [8] were 0.47 µM and 0.31 µM, respectively.

Turning to `CC(=O)[O][Hg][c]1ccccc1` [Phenylmercuric acetate], the EC50 with HCoV-OC43-WT [1] was 2.17 µM; in the data set on HCoV-NL63 [2], 6.79 µM; in the data set on MERS-CoV [3], 6.44 µM; with MHV-A59 [4], 6.81 µM. Moreover, the CC50 with BHK-21 cells is 5.35 µM; with LLC-MK2 cells it was 5.47 µM; in the data set with Vero E6 cells it was 5.39 µM; with DBT cells it was 5.97 µM.

For `COC(=O)[C@H]1[C@@H](O)[C@@]2(O)c3c(OC)cc(O[C@@H]4O[C@@H]([C@H](O)CO)CO[C@H]4OC)cc3O[C@@]2(c2ccc(OC)cc2)[C@@H]1c1ccccc1` [silvestrol], the EC50 is 0.0013 µM with MERS-CoV [13] and 0.003 µM in the data set with HCoV-229E.
